Laboratory results taken from paper PMC7729733, “Biological Properties of New Chiral 2-Methyl-5,6,7,8-tetrahydroquinolin-8-amine-based Compounds” (Molecules, 2020).
Where two headings read alike, the source gives them in different places.

How the values were obtained:
[1] = target: quinone reductase 2 (QR2); design: method as in PMID 22716080, PMID 16765324; settings: read-out: QR2 inhibitory activity IC50; cited from earlier work
[2] = system: HeLa (human cervix carcinoma cells); settings: read-out: IC50 HeLa; reference compound; cited from earlier work
[3] = system: HMEC-1 (human dermal microvascular endothelial cells); settings: read-out: IC50 HMEC-1; reference compound; cited from earlier work
[4] = system: CEM (human T-lymphocyte cells); settings: read-out: IC50 CEM; reference compound; cited from earlier work
[5] = system: MSTO-211H (biphasic mesothelioma); settings: reference compound; cited from earlier work
[6] = system: HT-29 (colorectal adenocarcinoma); settings: reference compound; cited from earlier work
[7] = system: A2780 (ovarian carcinoma); settings: reference compound; cited from earlier work
HCT-116 = system: HCT-116; design: method as in PMID 30253345; settings: cytotoxicity; cited from earlier work
human topoisomerase I = target: T1, human topoisomerase I (Homo sapiens, UniProt P11387); assay: Topoisomerase I relaxation assay; type: biochemical; settings: supercoiled pBR322; 60 min at 37 °C
T1 construct: purchased TopoGEN
T1 sequence (P11387 1-765): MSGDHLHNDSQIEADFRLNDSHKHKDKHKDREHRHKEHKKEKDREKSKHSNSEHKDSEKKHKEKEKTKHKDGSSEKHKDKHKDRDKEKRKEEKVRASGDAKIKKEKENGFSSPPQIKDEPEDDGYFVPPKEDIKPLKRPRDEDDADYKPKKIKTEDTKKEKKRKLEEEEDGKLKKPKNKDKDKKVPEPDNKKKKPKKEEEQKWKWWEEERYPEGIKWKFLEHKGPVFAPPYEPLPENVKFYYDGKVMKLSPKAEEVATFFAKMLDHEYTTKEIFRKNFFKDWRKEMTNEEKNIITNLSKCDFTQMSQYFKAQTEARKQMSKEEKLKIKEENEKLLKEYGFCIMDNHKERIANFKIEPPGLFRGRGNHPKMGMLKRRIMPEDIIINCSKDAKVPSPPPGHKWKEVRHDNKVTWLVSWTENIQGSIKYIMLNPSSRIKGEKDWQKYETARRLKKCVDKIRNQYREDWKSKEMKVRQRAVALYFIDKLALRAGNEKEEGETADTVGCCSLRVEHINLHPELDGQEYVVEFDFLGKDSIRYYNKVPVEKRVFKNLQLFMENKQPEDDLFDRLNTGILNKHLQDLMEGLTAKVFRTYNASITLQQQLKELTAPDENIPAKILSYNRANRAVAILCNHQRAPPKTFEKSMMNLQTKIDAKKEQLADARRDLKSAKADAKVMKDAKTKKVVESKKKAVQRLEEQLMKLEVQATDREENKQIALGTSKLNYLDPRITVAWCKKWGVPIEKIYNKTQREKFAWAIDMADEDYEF
Description: (§1) Figure 3SI. Effect of compound (R)-5a on the relaxation of supercoiled pBR322 DNA by human recombinant topoisomerase I or II. Supercoiled plasmid pBR322 DNA (DNA) was incubated with topo I (topo I) or II in the absence (topo II) and in the presence of (R)-5a at indicated […]
(§2) Topoisomerase I and II relaxation assay
(§3) Supercoiled pBR322 plasmid DNA (20 ng, Fermentas Life Sciences) and 5U topoisomerase I (human topoisomerase I, TopoGEN) or alternatively, supercoiled pBR322 plasmid DNA (0.25 μg) and 1U topoisomerase II (human topoisomerase II alpha, Inspiralis) were incubated in the presence of test compound as indicated for 60 min at 37 °C in 20 µL reaction buffer.Reactions were stopped by adding 4 μL stop buffer (5% sodium dodecyl sulfate, 0.125% b romophenol blue, and 30% glycerol), 50 μg/mL proteinase K (Sigma) and incubating for a further 30 min at 37 °C.
(§4) The samples were separated by electrophoresis on a 1% agarose gel at room temperature. The gels were stained with ethidium bromide 1 μg/mL in TAE buffer (0.04 M Tris-acetate and 0.001 M EDTA), transilluminated by UV light, and fluorescence emission was visualized by a CCD camera coupled to a Bio-Rad Gel Doc XR apparatus.
(§5) (1 picture or pasted object on this page, not shown here)

[8] = system: A2780 (ovarian carcinoma); assay: Cell growth assay (Trypan blue), A2780 cells; type: cell-based, human; settings: for IC50: 72 h, Trypan blue
Description: (§6) A2780 (human ovarian carcinoma) and HT-29 (human colorectal adenocarcinoma) were grown in RPMI 1640 (Sigma Chemical Co., St. Louis, MO, USA), and MSTO-211H (human biphasic mesothelioma) were grown in RPMI 1640 (Sigma Chemical Co.) supplemented with 2.38 g/L Hepes, 0.11 g/L pyruvate sodium, and 2.5 g/L glucose. Then, 1.5 g/L NaHCO3, 10% heat-inactivated fetal calf serum (Biowest), 100 U/mL penicillin, 100 μg/mL streptomycin, and 0.25 μg/mL amphotericin B (Sigma Chemical Co.) were added to the media. The cells were cultured at 37 °C in a moist atmosphere of 5% carbon dioxide in air. Cells (2.5–3 × 10^4) were seeded into each well of a 24-well cell culture plate. After incubation for 24 h, various concentrations of the test agents were added to the complete medium and incubated for a further 72 h. A Trypan blue assay was performed to determine cell viability. Cytotoxicity data were expressed as IC50 values, i.e., the concentration of the test compound able to induce a 50% reduction in cell number compared with control cultures.

[9] = system: MSTO-211H (biphasic mesothelioma); assay: Cell growth assay (Trypan blue), MSTO-211H cells; type: cell-based, human; settings: for IC50: Homo sapiens, MSTO-211H, 72 h, Trypan blue
Description: as §6

[10] = system: supercoiled plasmid pBR322 DNA; assay: Unwinding assay, electrophoretic mobility of supercoiled DNA; settings: 3 h at 37 °C
Description: Figure 2SI. Effect of compound (R)-5a on the electrophoretic mobility of supercoiled DNA.
Supercoiled plasmid pBR322 DNA was incubated in the absence or in the presence of (R)-5a at indicated concentrations. The effect of solvent alone on DNA was also assayed (solvent).
Supercoiled pBR322 plasmid DNA (0.15 µg, Fermentas Life Sciences) was incubated in TAE buffer (0.04 M Tris, 0.02 M Acetic Acid, EDTA 1 mM, pH=8) with test compound at indicated concentrations for 3 h at 37 °C in 10 μL final volume. 3 μL of loading buffer (0.125% bromophenol blue, 0.125% xylene cyanol and 50% glycerol) was added to each sample and DNA was separated by electrophoresis on a 0.8% agarose gel at room temperature. The gels were stained with ethidium bromide (1 μg/mL) in TAE buffer, transilluminated by UV light, and the fluorescence emission was visualized by a CCD camera coupled to a Bio-Rad Gel Doc XR apparatus.
as §5

[11] = target: T2, human topoisomerase II alpha (Homo sapiens, UniProt P11388); assay: Topoisomerase II relaxation assay; type: biochemical; settings: supercoiled pBR322; 60 min at 37 °C
T2 construct: purchased Inspiralis
Description: as §1, §2, §3, §4, §5

A2780 cells [12] = assay: Measurement of reactive oxygen species (H2DCF-DA); type: cell-based, human; settings: 50 μM, 120 min of incubation
Description: The intracellular production of ROS was determined by using the cell-permeable fluorogenic probe 2′,7′-dichlorodihydrofluorescein diacetate (H2DCF-DA). A2780 cells (10^4) were seeded in 96-well plates and incubated for 24 h. The medium was then removed, and the cells washed with PBS and incubated with 10 μM H2DCF-DA in the dark for 20 min at 37 °C and 5% carbon dioxide in air. Afterwards, the medium was removed, cells washed with PBS, and PBS/10 mM glucose containing the test compound was added. ROS production was estimated by monitoring the fluorescence increase of the probe (λex = 480, λem = 530) using a PerkinElmer VICTOR X3 plate reader.

[13] = system: HT-29 (colorectal adenocarcinoma); assay: Cell growth assay (Trypan blue), HT-29 cells; type: cell-based, human; settings: Homo sapiens, 72 h
Description: as §6

A2780 cells [14] = assay: Cell cycle analysis (propidium iodide, flow cytometry); type: cell-based, human; settings: 28 h, mean ± SD of four experiments
Description: A2780 cells ([…]) were seeded into a 6-well culture plate in complete medium. After incubation for 24 h, the test compound was added at the indicated concentration and cells were incubated for a further 28 h. After treatment, cells were harvested, centrifugated, and 300–500 × 10^3 cells were fixed and permeabilized with 70% ice-cold ethanol at 4 °C for 20 min. The cells were washed twice with PBS and incubated in a staining solution containing 0.1 mg/mL RNAse and 36 μg/mL propidium iodide for 20 min at room temperature. The DNA content analysis was performed using a FACSCanto II flow cytometer (Becton-Dickinson, Mountain View, CA, USA).

[15] = system: CEM (human T-lymphocyte cells); assay: Cell growth assay, CEM cells; type: cell-based; settings: racemic compounds, 72 h, Coulter counter
Description: (§7) HeLa (human cervix carcinoma) and CEM (human T-lymphoblast) were grown in Dulbecco’s modified Eagle’s medium (DMEM; Gibco, Carlsbad, CA, USA), supplemented with 0.01 M Hepes (Gibco) and 1 mM sodium pyruvate (Gibco) in a humidified 5% CO2 incubator at 37 °C. HMEC-1 (human microvascular endothelial cells) was maintained in Dulbecco’s modified Eagle’s medium (DMEM)/low glucose containing glutamine (2 mM). The media were supplemented with 10% fetal bovine serum (FBS, Gibco), penicillin ([…]), streptomycin ([…]), and amphotericin B ([…]). CEM cells were seeded in 96-well plates at 60,000 cells/well in the presence of different concentrations of the compounds, and allowed to proliferate for 72 h. HeLa cells were seeded in 96-well plates at 15,000 cells/well in the presence of different concentrations of the compounds. After 4 days of incubation, the cells were trypsinized and counted. HMEC-1 cells were seeded in 48-well plates at 20,000 cells/well. After 24 h, the compounds were added at different concentrations. The cells were allowed to proliferate for 4 days in the presence of the compounds, trypsinized, and counted. All cells were counted by means of a Coulter counter (Analis, Belgium).

[16] = system: HeLa (human cervix carcinoma cells); assay: Cell growth assay, HeLa cells; type: cell-based; settings: 96 h, racemic compounds, 4 days, Coulter counter
Description: as §7

[17] = system: HMEC-1 (human dermal microvascular endothelial cells); assay: Cell growth assay, HMEC-1 cells; type: cell-based; settings: HMEC-1, 96 h, racemic compounds, 4 days, Coulter counter
Description: as §7

T2 sequence (P11388 whole entry): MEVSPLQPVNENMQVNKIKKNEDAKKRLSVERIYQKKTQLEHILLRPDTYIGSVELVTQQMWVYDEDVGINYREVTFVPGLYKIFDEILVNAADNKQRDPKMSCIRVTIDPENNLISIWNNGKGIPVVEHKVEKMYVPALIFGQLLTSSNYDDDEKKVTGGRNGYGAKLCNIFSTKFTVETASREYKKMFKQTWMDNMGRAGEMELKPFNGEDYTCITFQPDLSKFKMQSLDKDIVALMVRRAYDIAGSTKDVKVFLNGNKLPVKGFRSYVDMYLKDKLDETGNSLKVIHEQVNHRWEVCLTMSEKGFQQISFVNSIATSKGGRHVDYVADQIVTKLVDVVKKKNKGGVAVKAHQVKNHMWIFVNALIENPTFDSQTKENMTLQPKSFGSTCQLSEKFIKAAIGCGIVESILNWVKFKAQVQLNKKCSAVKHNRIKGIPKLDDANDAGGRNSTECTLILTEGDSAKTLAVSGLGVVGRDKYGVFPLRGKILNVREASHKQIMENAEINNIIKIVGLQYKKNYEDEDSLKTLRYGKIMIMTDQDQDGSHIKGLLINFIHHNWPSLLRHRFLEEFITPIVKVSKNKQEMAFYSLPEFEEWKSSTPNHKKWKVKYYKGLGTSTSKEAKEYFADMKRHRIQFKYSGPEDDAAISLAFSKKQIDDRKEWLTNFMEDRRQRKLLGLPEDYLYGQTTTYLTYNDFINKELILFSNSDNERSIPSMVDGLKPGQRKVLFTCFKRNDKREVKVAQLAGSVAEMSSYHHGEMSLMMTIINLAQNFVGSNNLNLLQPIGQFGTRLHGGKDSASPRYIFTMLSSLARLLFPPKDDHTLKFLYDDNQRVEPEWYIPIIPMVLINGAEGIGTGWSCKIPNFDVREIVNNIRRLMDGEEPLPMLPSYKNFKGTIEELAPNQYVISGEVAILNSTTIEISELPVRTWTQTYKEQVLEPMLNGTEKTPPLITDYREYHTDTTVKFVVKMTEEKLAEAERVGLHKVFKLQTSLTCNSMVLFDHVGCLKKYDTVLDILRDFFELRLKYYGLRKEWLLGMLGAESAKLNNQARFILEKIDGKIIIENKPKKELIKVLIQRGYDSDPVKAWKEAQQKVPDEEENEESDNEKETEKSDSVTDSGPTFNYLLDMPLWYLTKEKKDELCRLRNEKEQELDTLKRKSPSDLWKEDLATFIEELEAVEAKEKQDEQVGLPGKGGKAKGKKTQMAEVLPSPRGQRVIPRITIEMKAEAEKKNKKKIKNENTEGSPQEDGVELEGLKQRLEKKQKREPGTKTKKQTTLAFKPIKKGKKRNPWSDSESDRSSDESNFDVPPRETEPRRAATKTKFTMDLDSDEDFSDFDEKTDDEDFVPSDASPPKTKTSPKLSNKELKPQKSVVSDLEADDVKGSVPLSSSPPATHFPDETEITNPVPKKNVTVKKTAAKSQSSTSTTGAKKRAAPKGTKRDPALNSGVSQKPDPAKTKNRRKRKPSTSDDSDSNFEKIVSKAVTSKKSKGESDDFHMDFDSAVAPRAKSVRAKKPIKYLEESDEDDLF

SMILES: CNc1c(Cl)c(N)c2c3c(cc(C(N)=O)nc13)C(=O)N2C [Compound 5]
- IC50 [1]: 0.0041 µM

SMILES: COc1ccc(/C=C\c2cc(OC)c(OC)c(OC)c2)cc1OP(=O)(O)O [CA-4P, Combretastatin A4P]
- IC50 [2]: 0.079 ± 0.003 µM
- IC50 [3]: 0.0029 µM
- IC50 [4]: 0.095 ± 0.006 µM

SMILES: COc1cc(NS(C)(=O)=O)ccc1Nc1c2ccccc2nc2ccccc12 [m-AMSA, Meta-amsacrine]
- IC50 [5]: 0.019 ± 0.001 µM
- IC50 [6]: 0.039 ± 0.004 µM
- IC50 [7]: 0.027 ± 0.005 µM

SMILES: CN1C(=O)c2cc(C(N)=O)nc3c(N)c(Cl)c(N)c1c23 [Compound 4, ammosamide B]
- IC50 [1]: 0.061 µM

SMILES: O=C(Sc1cccc2cccnc12)c1ccccc1Cl [QCBT7, Quinolin-chlorobenzothiazoate]
- IC50 (HCT-116): 0.6 µM

SMILES: Cc1ccc2c(n1)[C@H](/N=C/c1ncc[nH]1)CCC2 [(R)-5a, (E)-1-(1H-imidazol-2-yl)-N-(2-methyl-5,6,7,8-tetrahydroquinolin-8-yl)methanimine]
- effect on the relaxation ability of topoisomerase I (human topoisomerase I): unable to induce
- inhibitory effect on the A2780 cell line with respect to its counterpart (S)-5a ([8]; R enantiomer versus S enantiomer): ~3 fold
- IC50 ([8]; pure enantiomers): 5.4 ± 1.3 µM
- IC50 ([9]; pure enantiomers): 15.1 ± 1.5 µM
- cytotoxic effect on MSTO-211H (in words) ([9]; pure enantiomers): appreciable inhibition on cell growth
- modification in the electrophoretic migration of supercoiled plasmid DNA [10]: unable to induce any modification
- effect on the relaxation ability of topoisomerase II [11]: unable to induce
- intracellular amount of ROS with respect to untreated cells (control) (A2780 cells [12]): more than 4 fold
- IC50 ([13]; HT-29, pure enantiomers): > 20 µM
- cell percentage in G0/G1 (A2780 cells [14]; 2.5 μM): 61.2 ± 0.9%
- cell percentage in G2/M (A2780 cells [14]; 2.5 μM): 13.4 ± 0.7%
- cell percentage in S (A2780 cells [14]; 2.5 μM): 25.5 ± 0.6%
- cell percentage in G0/G1 (A2780 cells [14]; 5 μM): 63.7 ± 0.6%
- cell percentage in G2/M (A2780 cells [14]; 5 μM): 12.1 ± 0.6%
- cell percentage in S (A2780 cells [14]; 5 μM): 24.1 ± 1.1%
- cell percentage in G0/G1 (A2780 cells [14]; 10 μM): 70.3 ± 1.2%
- cell percentage in G2/M (A2780 cells [14]; 10 μM): 9.8 ± 0.6%
- cell percentage in S (A2780 cells [14]; 10 μM): 19.8 ± 0.9%
- cell percentage in G0/G1 (A2780 cells [14]; 20 μM): 71.6 ± 0.7%
- cell percentage in G2/M (A2780 cells [14]; 20 μM): 9.0 ± 0.8%
- cell percentage in S (A2780 cells [14]; 20 μM): 19.5 ± 0.4%

SMILES: Cc1ccc2c(n1)C(/N=C/c1ncc[nH]1)CCC2 (racemic) [Compound 5a, (E)-1-(1H-imidazol-2-yl)-N-(2-methyl-5,6,7,8-tetrahydroquinolin-8-yl)methanimine]
- IC50 [15]: 43 ± 7 µM
- melting point: 101.2 to 102.6 °C
- IC50 ([8]; Homo sapiens, A2780, 72 h, racemic compounds): 13 ± 3 µM
- IC50 ([9]; racemic compounds): 31 ± 7 µM
- IC50 [16]: 37 ± 9 µM
- IC50 [17]: 57 ± 4 µM
- IC50 ([13]; HT-29, racemic compounds): 70 ± 2 µM
